IC50 data for 13 molecules are collected here from US20230212180A1, “SUBSTITUTED PYRAZINE COMPOUND, PHARMACEUTICAL COMPOSITION COMPRISING SAME, AND USE THEREOF” (Sichuan Kelun-Biotech Biopharmaceutical Co., Ltd., priority 2020, published 2023).

In test [1] the target is T1, recombinant full-length human PTPN11 (SHP2) (Homo sapiens, UniProt Q06124).
T1 construct: recombinant full-length human PTPN11 (SHP2), active (SignalChem); purchased SignalChem
T1 sequence (Q06124 1-593): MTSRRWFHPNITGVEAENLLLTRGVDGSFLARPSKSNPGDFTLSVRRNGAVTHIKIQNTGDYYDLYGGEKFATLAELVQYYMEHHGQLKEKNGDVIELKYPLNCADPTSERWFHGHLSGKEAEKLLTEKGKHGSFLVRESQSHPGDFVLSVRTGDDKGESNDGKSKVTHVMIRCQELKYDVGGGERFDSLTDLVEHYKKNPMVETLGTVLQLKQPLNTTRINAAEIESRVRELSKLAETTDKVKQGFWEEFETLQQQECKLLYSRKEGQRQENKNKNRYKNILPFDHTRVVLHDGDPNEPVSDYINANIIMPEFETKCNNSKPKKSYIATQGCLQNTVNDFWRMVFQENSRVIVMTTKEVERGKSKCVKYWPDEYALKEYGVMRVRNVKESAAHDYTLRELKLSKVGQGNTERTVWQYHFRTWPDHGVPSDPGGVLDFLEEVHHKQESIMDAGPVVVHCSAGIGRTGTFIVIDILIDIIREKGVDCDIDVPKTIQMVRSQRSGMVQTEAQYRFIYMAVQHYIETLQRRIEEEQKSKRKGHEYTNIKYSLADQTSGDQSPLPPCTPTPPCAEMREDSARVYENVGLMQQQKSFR
Kind of test: Inhibition of in vitro enzyme activity of SHP2 (DiFMUP fluorescence endpoint assay). It is filed as biochemical. The conditions noted are these: SHP2 0.5 nM, DiFMUP 200 μM, IRS-1 0.5 μM; 60 min incubation. Here is the method: Test Example 1: Experiment on the Inhibition of In Vitro Enzyme Activity of SHP2 (Protein Phosphatase)
phosphatase: recombinant full-length human PTPN11 (SHP2), active (SignalChem);
substrate: 6,8-difluoro-4-methylumbelliferyl phosphate (DiFMUP) (Invitrogen);
activating peptide: IRS1_pY1172(dPEG8)pY1222 (IRS1) (BPS Bioscience);
terminator: bpv(phen) (bpv) (Abcam).
SHP2 concentration: 0.5 nM;
DiFMUP concentration: 200 μM;
IRS-1 concentration: 0.5 μM;
bpv concentration: 160 μM;
buffer systems: 60 mM Hepes pH 7.2; 75 mM NaCl; 75 mM KCl; 0.05% surfactant P20; 1 mM EDTA; 5 mM DTT;
incubation duration of compound and enzyme: 60 minutes;
reaction time of enzyme and substrate: 30 minutes;
parameters for microplate reader: BMG PHERAstar fluorescence microplate reader at an excitation wavelength of 340 nm and an emission wavelength of 450 nm.
Test group: A mixture of the test compound and the phosphatase SHP2 together with the activating peptide IRS-1 were incubated in the buffer system at room temperature for 60 minutes. The substrate DiFMUP was added to initiate the reaction and incubated at room temperature for 30 minutes. Thereafter, bpv was added to terminate the reaction. The reaction plate was placed in the microplate reader, and the fluorescence intensities of the wells in the plate were measured using an endpoint assay.
Negative group: The experimental method for the negative group was the same as that for the test group, except that the test compound was substituted with 0.05% aqueous solution of DMSO.
Blank group: The experimental method for the blank group was the same as that for the test group, except that the test compound was substituted with 0.05% aqueous solution of DMSO and that SHP2 was not added.
The relative inhibitory activity was calculated for the test group at each concentration based on the following equation: inhibition rate (%)=100%−(the fluorescence intensity of the test group−the fluorescence intensity of the blank group)/(the fluorescence intensity of the negative group−the fluorescence intensity of the blank group)×100%. The half maximal inhibitory concentration (IC50) of the compound was calculated by fitting the curve according to the four-parameter logistic model.

For the next test, the target named is T2, CYP2D6 (Homo sapiens, UniProt P10635).
T2 construct: purchased Promega
T2 sequence (P10635 whole entry): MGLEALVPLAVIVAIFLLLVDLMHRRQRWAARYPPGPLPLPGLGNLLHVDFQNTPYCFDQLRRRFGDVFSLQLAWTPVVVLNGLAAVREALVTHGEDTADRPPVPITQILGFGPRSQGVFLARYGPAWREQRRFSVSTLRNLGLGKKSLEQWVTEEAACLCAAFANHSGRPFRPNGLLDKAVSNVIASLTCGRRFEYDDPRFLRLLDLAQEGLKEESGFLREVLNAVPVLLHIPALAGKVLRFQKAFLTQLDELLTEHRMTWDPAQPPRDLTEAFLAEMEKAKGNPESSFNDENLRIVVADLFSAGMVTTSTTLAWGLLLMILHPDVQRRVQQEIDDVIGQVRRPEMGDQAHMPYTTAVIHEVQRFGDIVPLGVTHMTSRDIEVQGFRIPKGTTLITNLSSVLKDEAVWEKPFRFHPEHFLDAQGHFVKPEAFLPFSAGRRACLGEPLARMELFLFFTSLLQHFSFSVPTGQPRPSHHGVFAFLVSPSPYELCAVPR
Kind of test: Biochemical assay for CYP enzyme inhibition, P450-Glo CYP2D6 Screening System. It is filed as in vitro ADME. The procedure: Test Example 5: Biochemical Assay for CYP Enzyme (Cytochrome P450) Inhibition
P450-Glo™ CYP2D6 Screening System, (Promega);
BMG PHERAstar FS Luminescent.
The experiments were carried out separately according to the instructions of the kits. The steps were as follows:
3.2. Inhibition Against CYP2D6:
Test group: The test compounds at different concentrations were added into a microplate, and Luciferin-ME EGE (3 μM), K3PO4 (100 mM), and CYP2D6 (5 nM) were added into each well, and pre-incubated at room temperature for 10 min. Thereafter, an NADPH regeneration system was added. The mixture was reacted at 37° C. for 30 min. Finally, an equal volume of detection buffer was added and incubated at room temperature for 20 min, followed by chemiluminescence detection.
Negative control group: The experimental method for the negative control group was the same as that for the test group, except that the test compound was not added.
Blank control group: The experimental method for the blank control group was the same as that for the test group, except that the test compound was not added and that CYP2D6 was replaced with CYP2D6 Membrance (5 nM).
Percentage inhibition=(1−(the chemiluminescent signal value of the test compound group at a certain test concentration−the chemiluminescent signal value of the blank control group)/(the chemiluminescent signal value of the negative control group−the chemiluminescent signal value of the blank control group))×100%.
When the percentage inhibition was between 30% and 80%, a single value or a value range of the half maximal inhibitory concentration (IC50) of the compound against the CYP enzyme was estimated based on the following equation: IC50=X×(1−percentage inhibition)/percentage inhibition, wherein X was the test concentration of the compound.

The target of the next test is T3, hERG (Homo sapiens, UniProt Q12809).
T3 construct: purchased ThermoFisher
T3 sequence (Q12809 whole entry): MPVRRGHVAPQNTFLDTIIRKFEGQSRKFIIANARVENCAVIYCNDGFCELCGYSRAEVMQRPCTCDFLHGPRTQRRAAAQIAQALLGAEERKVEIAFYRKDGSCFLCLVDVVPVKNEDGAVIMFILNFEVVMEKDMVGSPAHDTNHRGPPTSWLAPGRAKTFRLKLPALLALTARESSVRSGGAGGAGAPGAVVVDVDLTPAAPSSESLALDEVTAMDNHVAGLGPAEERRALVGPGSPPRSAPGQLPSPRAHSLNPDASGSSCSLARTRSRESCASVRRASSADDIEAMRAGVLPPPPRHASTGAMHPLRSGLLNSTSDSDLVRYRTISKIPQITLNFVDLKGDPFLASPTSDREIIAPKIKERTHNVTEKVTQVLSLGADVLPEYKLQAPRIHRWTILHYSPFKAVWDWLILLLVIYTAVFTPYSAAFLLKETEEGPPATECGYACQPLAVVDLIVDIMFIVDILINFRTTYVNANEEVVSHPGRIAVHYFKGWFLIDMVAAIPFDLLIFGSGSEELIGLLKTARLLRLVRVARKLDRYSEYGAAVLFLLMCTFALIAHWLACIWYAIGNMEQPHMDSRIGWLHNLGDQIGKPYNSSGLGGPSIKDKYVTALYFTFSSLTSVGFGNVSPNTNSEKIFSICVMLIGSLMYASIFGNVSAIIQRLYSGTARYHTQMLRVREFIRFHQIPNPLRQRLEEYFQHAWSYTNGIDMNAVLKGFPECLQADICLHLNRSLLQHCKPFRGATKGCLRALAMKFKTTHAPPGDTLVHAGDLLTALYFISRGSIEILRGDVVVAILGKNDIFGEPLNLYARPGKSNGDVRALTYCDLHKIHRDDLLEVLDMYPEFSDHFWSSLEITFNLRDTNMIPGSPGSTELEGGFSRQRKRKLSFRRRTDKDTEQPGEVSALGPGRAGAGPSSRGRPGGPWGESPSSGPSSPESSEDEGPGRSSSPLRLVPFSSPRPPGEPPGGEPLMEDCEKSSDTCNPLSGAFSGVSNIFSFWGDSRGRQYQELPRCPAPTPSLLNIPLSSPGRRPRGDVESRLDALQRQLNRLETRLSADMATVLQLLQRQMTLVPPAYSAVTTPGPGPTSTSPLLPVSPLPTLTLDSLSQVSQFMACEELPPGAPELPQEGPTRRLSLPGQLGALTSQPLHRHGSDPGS
In words: Biochemical assay for hERG inhibition (Predictor hERG Fluorescence Polarization Assay Kit). The test is classed as binding. Here is the method: Test Example 3: Biochemical Assay for hERG Inhibition
kit: Predictor™ hERG Fluorescence Polarization Assay Kit (ThermoFisher) containing:
Compound E4031 as a positive control;
tracer concentration: 1 nM;
incubation duration: 2 hours;
parameters for microplate reader: BMG PHERAstar FS fluorescence microplate reader.
Test group: The test compounds at different concentrations were added into a microplate containing hERG cell membrane, and the tracer with a high affinity for hERG was then added into each well. The microplate was incubated at 25° C. for 2 hours before detection of the change in fluorescence polarization value (mP) (excitation wavelength: 540 nm; emission wavelength: 590 nm) using a multi-mode microplate reader.
Positive control group: The experimental method for the positive control group was the same as that for the test group, except that the test compound was replaced with 30 μM Compound E4031.
Blank control group: The experimental method for the blank control group was the same as that for the test group, except that the test compound was replaced with the hERG buffer and that the hERG cell membrane was not added.
Based on the data ratios, the percentage inhibition (%) of the compounds of the present disclosure against hERG at different concentrations was calculated and the range of the half maximal inhibitory concentration (IC50) of the compounds was determined. Percentage inhibition (%)=(1−(mP of the test compound−mP of the positive control group)/(mP of the blank control group−mP of the positive control group))×100%.

[2] abbreviates: estimated from percentage inhibition, read-out: IC50 (μM) CYP2D6.

Read-outs that look alike come from different tables or passages of the source.

Broadly, the IC50 is the concentration that inhibits the measured activity by half. As for `C[C@@H]1OCC2(CCN(c3ncc(Sc4ccnc(N5CC(CO)C5)c4Cl)nc3CO)CC2)[C@@H]1N` [Example 6, (3-((3S,4S)-4-amino-3-methyl-2-oxa-8-azaspiro[4.5]decan-8-yl)-6-(3-chloro-2-(3-(hydroxymethyl)azetidin-1-yl)pyridin-4-ylthio)pyrazin-2-yl)methanol], the figures for the IC50 (in test [1]; at CYP2D6) were 1.76 nM and > 10 µM, respectively.

For the molecule `C[C@@H]1OCC2(CCN(c3ncc(Sc4ccnc(N5CC(C)(CS(C)(=O)=O)C5)c4Cl)nc3CO)CC2)[C@@H]1N` [Example 29, (3-((3S,4S)-4-amino-3-methyl-2-oxa-8-azaspiro[4.5]decan-8-yl)-6-(3-chloro-2-(3-methyl-3-(methylsulfonylmethyl)azetidin-1-yl)pyridin-4-ylthio)pyrazin-2-yl)methanol], the IC50 is 1.68 nM in test [1], > 10 µM on hERG and > 10 µM at CYP2D6.

As for `CC(C)(O)C1CN(c2nccc(Sc3ncc(N4CCC5(CC4)Cc4ncccc4[C@H]5N)nc3N)c2Cl)C1` [Example 46, (S)-2-(1-(4-(3-amino-5-(5-amino-5,7-dihydrospiro[cyclopenta[b]pyridine-6,4′-piperidin]-1′-yl)pyrazin-2-ylthio)-3-chloropyridin-2-yl)azetidin-3-yl)propan-2-ol], the 50% inhibitory concentration (IC50) in test [1] was 2.6 nM; at hERG (competition with affinity tracer 1 nM, 2 hours, read-out: IC50 (μM), hERG inhibition assay), > 10 µM; on CYP2D6 (setting [2]) it was > 10 µM.

In the case of `CC(C)(O)C1CN(c2nccc(Sc3cnc(N4CCC5(CC4)Cc4ccccc4[C@H]5N)c(CO)n3)c2Cl)C1` [Example 23, (S)-2-(1-(4-(5-(1-amino-1,3-dihydrospiro[indene-2,4′-piperidin]-1′-yl)-6-(hydroxymethyl)pyrazin-2-ylthio)-3-chloropyridin-2-yl)azetidin-3-yl)propan-2-ol], the concentration for half-maximal inhibition (IC50) in test [1] was 1.9 nM; at CYP2D6 (setting [2]), > 10 µM.

Turning to `COCC1CN(c2nccc(Sc3cnc(N4CCC5(CC4)CO[C@@H](C)[C@H]5N)c(CO)n3)c2Cl)C1` [Example 21, (3-((3S,4S)-4-amino-3-methyl-2-oxa-8-azaspiro[4.5]decan-8-yl)-6-(3-chloro-2-(3-(methoxymethyl)azetidin-1-yl)pyridin-4-ylthio)pyrazin-2-yl)methanol], the IC50 was 1.15 nM in test [1] and > 10 µM against CYP2D6.

As to `C[C@@H]1OCC2(CCN(c3ncc(Sc4ccnc(N5CC(CC#N)C5)c4Cl)nc3CO)CC2)[C@@H]1N` [Example 5, 2-(1-(4-(5-((3S,4S)-4-amino-3-methyl-2-oxa-8-azaspiro[4.5]decan-8-yl)-6-(hydroxymethyl)pyrazin-2-ylthio)-3-chloropyridin-2-yl)azetidin-3-yl)acetonitrile], the IC50 in test [1] was 1.22 nM; on CYP2D6, > 10 µM.

In the case of `Cc1nc(N2CCC3(CC2)CO[C@@H](C)[C@H]3N)c(CO)nc1Sc1ccnc(N2CCCC2CO)c1Cl` (stereo partly shown) [Example 1], the IC50 was 6.03 nM in test [1] and > 10 µM against CYP2D6.

`C[C@@H]1OCC2(CCN(c3ncc(Sc4ccnc(N5CCCC5CO)c4Cl)nc3CO)CC2)[C@@H]1N` (stereo partly shown) [Example 2]: the IC50 in test [1] is 1.82 nM; on hERG, > 10 µM; on CYP2D6 (setting [2]), > 10 µM.

Turning to `C[C@@H]1OCC2(CCN(c3ncc(Sc4ccnc(N5CC(C#N)(CO)C5)c4Cl)nc3CO)CC2)[C@@H]1N` [Example 47, 1-(4-(5-((3S,4S)-4-amino-3-methyl-2-oxa-8-azaspiro[4.5]decan-8-yl)-6-(hydroxymethyl)pyrazin-2-ylthio)-3-chloropyridin-2-yl)-3-(hydroxymethyl)azetidine-3-carbonitrile], the IC50 was 3.2 nM in test [1], > 10 µM on hERG and > 10 µM against CYP2D6.

With `C[C@@H]1OCC2(CCN(c3ncc(Sc4ccnc(N5CCCC5CC(N)=O)c4Cl)nc3CO)CC2)[C@@H]1N` (stereo partly drawn) [Example 19, 2-(1-(4-(5-((3S,4S)-4-amino-3-methyl-2-oxa-8-azaspiro[4.5]decan-8-yl)-6-(hydroxymethyl)pyrazin-2-ylthio)-3-chloropyridin-2-yl)pyrrolidin-2-yl)acetamide], the IC50 was 1.5 nM in test [1], > 10 µM at hERG and > 10 µM at CYP2D6 (setting [2]).

As for `CC(C)(O)C1CN(c2nccc(Sc3cnc(N4CCC5(CC4)Cc4ncccc4[C@H]5N)c(CO)n3)c2Cl)C1` [Example 43, (S)-2-(1-(4-(5-(5-amino-5,7-dihydrospiro[cyclopenta[b]pyridine-6,4′-piperidin]-1′-yl)-6-(hydroxymethyl)pyrazin-2-ylthio)-3-chloropyridin-2-yl)azetidin-3-yl)propan-2-ol], the concentration for half-maximal inhibition (IC50) is 2.6 nM in test [1] and > 10 µM on CYP2D6 (setting [2]).

For the molecule `CC(O)C1CN(c2nccc(Sc3cnc(N4CCC5(CC4)CO[C@@H](C)[C@H]5N)c(CO)n3)c2Cl)C1` (stereo partly drawn) [Example 17, 1-(1-(4-(5-((3S,4S)-4-amino-3-methyl-2-oxa-8-azaspiro[4.5]decan-8-yl)-6-(hydroxymethyl)pyrazin-2-ylthio)-3-chloropyridin-2-yl)azetidin-3-yl)ethan-1-ol], the results for the IC50 (in test [1]; on CYP2D6) were 2.5 nM and > 10 µM, respectively.

With `CC(C)(O)C1CN(c2nccc(Sc3cnc(N4CCC5(CC4)Oc4ccccc4[C@H]5N)c(CO)n3)c2Cl)C1` [Example 22, (R)-2-(1-(4-(5-(3-amino-3H-spiro[benzofuran-2,4′-piperidin]-1′-yl)-6-(hydroxymethyl)pyrazin-2-ylthio)-3-chloropyridin-2-yl)azetidin-3-yl)propan-2-ol], the values for the IC50 (in test [1]; at CYP2D6 (setting [2])) were 4.3 nM and > 10 µM, respectively.
